Target: PPIL4 with GFP-CRBN-DDB1∆B (Homo sapiens, UniProt Q8WUA2+Q96SW2)
Experiment: TR-FRET ternary complex formation
Format: binding

Chain of PPIL4 with GFP-CRBN-DDB1∆B (Q96SW2 whole entry): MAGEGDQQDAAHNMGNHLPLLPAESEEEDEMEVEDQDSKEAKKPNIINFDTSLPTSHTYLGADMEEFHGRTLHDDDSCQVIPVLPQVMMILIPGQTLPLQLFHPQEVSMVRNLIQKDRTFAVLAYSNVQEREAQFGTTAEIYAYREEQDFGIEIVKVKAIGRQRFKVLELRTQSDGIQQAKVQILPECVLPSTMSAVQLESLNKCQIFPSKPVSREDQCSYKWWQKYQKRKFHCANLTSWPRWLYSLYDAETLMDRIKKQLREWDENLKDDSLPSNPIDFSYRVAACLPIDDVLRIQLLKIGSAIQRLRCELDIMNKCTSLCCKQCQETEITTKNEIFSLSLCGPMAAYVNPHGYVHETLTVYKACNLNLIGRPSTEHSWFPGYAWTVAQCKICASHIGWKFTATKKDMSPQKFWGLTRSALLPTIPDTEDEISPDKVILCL
Chain of PPIL4 with GFP-CRBN-DDB1∆B (Q8WUA2 whole entry): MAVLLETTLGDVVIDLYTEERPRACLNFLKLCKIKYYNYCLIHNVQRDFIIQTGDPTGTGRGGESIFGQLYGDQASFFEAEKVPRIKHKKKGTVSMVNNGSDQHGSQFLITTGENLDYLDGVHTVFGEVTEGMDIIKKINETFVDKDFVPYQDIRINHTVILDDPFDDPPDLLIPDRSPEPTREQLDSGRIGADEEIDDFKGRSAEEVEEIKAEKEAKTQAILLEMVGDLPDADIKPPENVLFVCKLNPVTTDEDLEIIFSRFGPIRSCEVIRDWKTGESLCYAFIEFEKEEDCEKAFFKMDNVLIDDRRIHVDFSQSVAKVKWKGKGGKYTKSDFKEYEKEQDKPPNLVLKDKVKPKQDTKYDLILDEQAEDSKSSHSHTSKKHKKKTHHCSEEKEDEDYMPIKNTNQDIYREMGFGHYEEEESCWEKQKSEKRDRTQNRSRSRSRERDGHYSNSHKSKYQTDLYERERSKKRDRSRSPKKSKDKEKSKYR
Chain of PPIL4 with GFP-CRBN-DDB1∆B (Q16531 1-395 partner): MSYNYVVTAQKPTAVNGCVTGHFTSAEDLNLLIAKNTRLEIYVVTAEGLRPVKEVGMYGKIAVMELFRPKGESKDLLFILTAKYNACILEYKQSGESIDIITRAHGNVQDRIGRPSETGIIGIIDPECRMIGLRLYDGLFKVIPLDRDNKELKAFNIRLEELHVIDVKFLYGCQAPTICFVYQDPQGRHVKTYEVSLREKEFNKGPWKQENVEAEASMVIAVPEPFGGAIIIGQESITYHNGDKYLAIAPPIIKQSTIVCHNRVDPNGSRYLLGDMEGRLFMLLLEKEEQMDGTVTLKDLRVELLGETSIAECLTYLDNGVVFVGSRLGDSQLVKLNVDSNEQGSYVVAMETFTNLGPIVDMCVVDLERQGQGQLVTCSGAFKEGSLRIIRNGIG
Chain of PPIL4 with GFP-CRBN-DDB1∆B (Q16531 706-1140 partner): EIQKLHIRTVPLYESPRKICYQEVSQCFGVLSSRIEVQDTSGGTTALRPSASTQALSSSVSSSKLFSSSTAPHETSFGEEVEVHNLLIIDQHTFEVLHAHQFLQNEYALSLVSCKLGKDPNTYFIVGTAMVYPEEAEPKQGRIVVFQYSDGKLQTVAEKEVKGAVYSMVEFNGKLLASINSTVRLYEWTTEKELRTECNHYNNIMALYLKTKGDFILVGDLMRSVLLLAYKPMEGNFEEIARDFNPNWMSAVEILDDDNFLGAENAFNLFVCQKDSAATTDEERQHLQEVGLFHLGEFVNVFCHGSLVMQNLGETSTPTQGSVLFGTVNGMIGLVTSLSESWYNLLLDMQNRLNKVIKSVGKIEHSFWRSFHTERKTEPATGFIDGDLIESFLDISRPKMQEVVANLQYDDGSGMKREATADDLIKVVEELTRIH

COc1cscc1-c1cn([C@H]2CCC(=O)NC2=O)nn1 [FPFT-2216]
EC50: 1050 nM
